# Experimental data published in patent publication US5200409A, “Composition and use of substituted 1,3-dithiolo-and 1,4-dithiinoquinoxalines as an antimicrobial” (The Dow Chemical Company, priority 1992, dated 1993).
# Where two headings read alike, the source gives them in different places.
# Key:
# marine organisms = assay: Marine antifouling rating of coated test panels exposed to the marine environment; settings: scale 10 (completely free of growth) to 0 (completely covered); for Marine Antifouling Rating, 3 Week Test, Top Panel / Marine Antifouling Rating, 3 Week Test, Bottom Panel: 3 weeks; for Marine Antifouling Rating, 3 Week Test, Top Panel / Marine Antifouling Rating, 6 Week Test, Top Panel: topside, white background; for Marine Antifouling Rating, 3 Week Test, Bottom Panel / Marine Antifouling Rating, 6 Week Test, Bottom Panel: underside, black background; for Marine Antifouling Rating, 6 Week Test, Top Panel / Marine Antifouling Rating, 6 Week Test, Bottom Panel: 6 weeks
# Procedure: Test panels are prepared from clear, rigid polyvinyl chloride film that is 0.381×10^-3 m thick and has one textured surface. The test panels are 0.1524 m by 0.1524 m squares that have 0.00635 m holes punched at corners on 0.127 m centers. A 0.102 square template, with a 0.067 m diameter hole at the center, is attached to the center of the textured surface of the test panels.
# A candidate marine antifoulant compound (1.0 g) is stirred into a resinous latex binder (9.0 g). A portion of the compound/binder mixture (1.5 g) is added to the center of the test panel and uniformly spread over the circular area inside the template.
# Water is added dropwise as needed to properly spread the compound/binder mixture. The template prevents the compound/binder mixture from spreading beyond the uncovered area. The test panel is allowed to sit for between ten to thirty minutes until the edge of the spread compound/binder mixture has dried. The template is then removed. The test panel is then allowed to dry for 8 to 12 hours at room temperature.
# Two test panels are prepared for each candidate marine antifoulant compound. Two control test panels are also prepared by only treating with the resinous latex binder. One test panel of each candidate marine […] compound is attached over a white background to the topside of an exposure support apparatus. The second test panel is attached over a black background to the underside of the exposure support apparatus. The exposure support apparatus is placed horizontally 0.0254 m under a marine surface with the white background topside facing up. The exposure support apparatus is exposed to the marine environment for both 3 and 6 weeks during which time the control test panels become substantially covered with mature marine organism growth on both the topside and underside exposures.
# After being removed from the exposure support apparatus, each test panel is inspected and rated for marine organism growth on both the treated and untreated areas of the test panel. The marine organisms present on the treated and untreated areas are noted. The presence of algea spores and bacterial slime are noted but not included in rating each test panel. The test panels are rated on a scale from 10 (representing completely free of marine organism growth) to 0 (representing completely covered with marine organism growth).
# Bacillus subtilis (Bs) = assay: Minimum inhibitory concentration (MIC) in nutrient agar; assay type: cell-based, Bacillus subtilis ATCC 8473
# Summary of the method: (§1)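 Growth inhibition was read visually after 48 h at 30° C on nutrient agar plates containing test compound at 500, 250, 100, 50, 25, 10, 5, 2.5, 1.0 or 0 ppm. Plates at pH 6.8 and pH 8.2 were inoculated with bacterial suspensions of 10^8 CFU/ml.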
# Fusarium oxysporum (Fo) = assay: Minimum inhibitory concentration (MIC) in malt yeast agar; assay type: cell-based, Fusarium oxysporum ATCC 48112; settings: read-out: Minimum Inhibitory Concentration, Fo
# Summary of the method: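 Agar dilution; malt yeast agar with 3 g yeast extract + 45 g malt agar/L; test levels 500–1.0 ppm plus zero. Inoculum: 7-day 30° C slant cultures suspended in saline with octylphenoxy polyethoxy ethanol, diluted 1:9, replicator-spotted. Read 72 h at 30° C.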
# [1] = system: Pseudomonas aeruginosa (Pa); assay: Minimum inhibitory concentration (MIC) in nutrient agar; assay type: cell-based, Pseudomonas aeruginosa ATCC 10145; settings: 48 hours
# Summary of the method: as §1
# [2] = system: Staphylococcus aureus (Sa); assay: as above; assay type: cell-based, Staphylococcus aureus ATCC 6538
# Summary of the method: as §1
# [3] = system: Klebsiella pneumoniae (Kp); assay: as above; assay type: cell-based, Klebsiella pneumoniae ATCC 8308
# Summary of the method: as §1
# [4] = system: Enterobacter aerogenes (Ea); assay: as above; assay type: cell-based, Enterobacter aerogenes ATCC 13048; settings: Klebsiella aerogenes
# Summary of the method: as §1
# [5] = system: Saccharomyces cerevisiae (Sc); assay: Minimum inhibitory concentration (MIC) in malt yeast agar; assay type: cell-based, Saccharomyces cerevisiae ATCC 4105; settings: read-out: Minimum Inhibitory Concentration, Sc
# Summary of the method: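 Compound dispersed in malt yeast agar at final 500, 250, 100, 50, 25, 10, 5, 2.5, 1.0 and 0 ppm (from 1% acetone/water solution); plates dried 24 h, then inoculated with saline/octylphenoxy polyethoxy ethanol suspensions of 7-day cultures diluted 1:9. Incubated at 30° C; read at 48 h for yeast, 72 h for fungi.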
# [6] = 48 h, pH 8.2, read-out: Minimum Inhibitory Concentration, Bs
# [7] = pH 6.8, nutrient agar, 30° C., 48 hours, read-out: Minimum Inhibitory Concentration, Bs
# [8] = 48 h, pH 8.2, read-out: Minimum Inhibitory Concentration, Sa
# [9] = pH 6.8, nutrient agar, 30° C., 48 hours, read-out: Minimum Inhibitory Concentration, Sa
# [10] = 48 h, pH 8.2, read-out: Minimum Inhibitory Concentration, Kp
# [11] = pH 6.8, nutrient agar, 30° C., 48 hours, read-out: Minimum Inhibitory Concentration, Kp
# [12] = 48 h, pH 6.8, read-out: Minimum Inhibitory Concentration, Ea
# [13] = 48 h, pH 8.2, read-out: Minimum Inhibitory Concentration, Ea
# [14] = malt yeast agar, 30° C., 48 hours for yeast
# [15] = 48 h, pH 6.8, read-out: Minimum Inhibitory Concentration, Bs
# [16] = malt yeast agar, 30° C., 72 hours for fungi
# [17] = 48 h, pH 6.8, read-out: Minimum Inhibitory Concentration, Sa
# [18] = pH 8.2, nutrient agar, 30° C., 48 hours, read-out: Minimum Inhibitory Concentration, Sa
SMILES,"Marine Antifouling Rating, 3 Week Test, Top Panel (marine organisms)","Marine Antifouling Rating, 3 Week Test, Bottom Panel (marine organisms)","Marine Antifouling Rating, 6 Week Test, Top Panel (marine organisms)","Marine Antifouling Rating, 6 Week Test, Bottom Panel (marine organisms)",MIC (Bacillus subtilis (Bs); [6]) [µg/mL],MIC (Bacillus subtilis (Bs); [7]) [µg/mL],MIC (Fusarium oxysporum (Fo); 72 h) [µg/mL],"MIC ([1]; pH 6.8, 30° C.) [µg/mL]","MIC ([1]; pH 8.2, 30° C.) [µg/mL]","MIC [2, 8] [µg/mL]","MIC [2, 9] [µg/mL]","MIC [3, 10] [µg/mL]","MIC [3, 11] [µg/mL]","MIC [4, 12] [µg/mL]","MIC [4, 13] [µg/mL]","MIC [5, 14] [µg/mL]",MIC ([5]; 48 h) [µg/mL],MIC (Bacillus subtilis (Bs); [15]) [µg/mL],MIC (Fusarium oxysporum (Fo); [16]) [µg/mL],"MIC [2, 17] [µg/mL]",other results
"N#CC1=C(C#N)Sc2nc3ccccc3nc2S1 [E, 1,4-dithiino-(2,3-b)-quinoxaline-2,3-dicarbonitrile]",8,4,9,0,> 500,50,50,> 500,> 500,< 10,25,> 500,500,> 500,> 500,< 10,–,–,–,–,–
"Cc1ccc2nc3c(nc2c1)SC(C#N)=C(C#N)S3 [D, 7-Methyl-1,4-dithiino-(2,3-b)quinoxaline-2,3-dicarbonitrile]",4,3,3,0,250,25,50,> 500,> 500,500,100,> 500,> 500,> 500,> 500,–,25,–,–,–,–
"N#CC(C#N)=C1Sc2nc3ccc(Cl)cc3nc2S1 [O, 6-chloro-1,3-dithiolo-(4,5-b)-quinoxaline-2-ylidene-propanedinitrile]",0,2,6,0,> 500,–,–,> 500,> 500,> 500,> 500,> 500,> 500,> 500,> 500,> 500,–,> 500,> 500,–,–
"N#CC1=C(C#N)Sc2nc3cc([N+](=O)[O-])ccc3nc2S1 [A, 7-nitro-1,4-dithiino-(2,3-b)-quinoxaline-2,3-dicarbonitrile]",9,9,8,3,–,< 10,–,100,> 500,–,–,500,25,–,> 500,–,2.5,–,2.5,< 10,"MIC (Bacillus subtilis (Bs); pH 8.2, nutrient agar, 30° C., 48 hours, read-out: Minimum Inhibitory Concentration, Bs): 100 µg/mL; MIC [2, 18]: 100 µg/mL; MIC ([4]; pH 6.8, nutrient agar, 30° C., 48 hours, read-out: Minimum Inhibitory Concentration, Ea): 100 µg/mL"
"N#CC1=C(C#N)Sc2nc3cc([N+](=O)[O-])c([N+](=O)[O-])cc3nc2S1 [B, 7,8-Dinitro-1,4-dithiino-(2,3-b)quinoxaline-2,3-dicarbonitrile]",6,3,3,0,25,–,25,> 500,> 500,< 10,–,> 500,–,> 500,> 500,–,25,500,–,< 10,"MIC ([3]; 48 h, pH 6.8, read-out: Minimum Inhibitory Concentration, Kp): 250 µg/mL"
"N#CC1=C(C#N)Sc2nc3cc(Cl)ccc3nc2S1 [C, 7-chloro-1,4-dithiino-(2,3-b)-quinoxaline-2,3-dicarbonitrile]",0,9,5,0,25,25,–,> 500,> 500,–,–,> 500,> 500,> 500,> 500,< 10,–,–,25,50,"MIC [2, 18]: 50 µg/mL"
"N#CC(C#N)=C1Sc2nc3ccc([N+](=O)[O-])cc3nc2S1 [L, 6-nitro-1,3-dithiolo-(4,5-b)-quinoxaline-2-ylidene-propanedinitrile]",7,7,9,0,> 500,–,–,> 500,> 500,> 500,100,> 500,> 500,> 500,> 500,5,–,100,10,–,–
